Measurements as given in patent US20240391936A1, “TETRAHYDROTHIENO PYRIDINE DERIVATIVES AS DDRS INHIBITORS” (CHIESI FARMACEUTICI S.P.A., priority 2021, published 2024).

Tests used:
DDR1 [1] = molecular target: T1, DDR1 (Homo sapiens, UniProt Q08345); experiment: DDR1 cell based assay (PathHunter U2OS DDR1 assay); set-up: host or cells: U2OS-DDR1 (PathHunter); details: U2OS-DDR1 cells, bovine Type II Collagen 20 μg/ml
Procedure, shortened: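 U2OS-DDR1 PathHunter cells preincubated 30 min with compound, then stimulated overnight at 37 °C with 20 μg/ml bovine type II collagen. Luminescent complementation signal read after 1 h detection at room temperature; normalized to vehicle (0%) and collagen-only (100%) controls, IC50 from variable-slope sigmoidal fit.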

DDR1 [2] = molecular target: T1, DDR1; experiment: DDR1 binding assay (LanthaScreen Europium Kinase Binding assay); set-up: purchased Carna Biosciences; details: binding assay, 5 nM DDR1, 20 nM Kinase Tracer 178; Ki from IC50 by Cheng-Prusoff; read-out: Ki DDR1
Procedure, shortened: (§1)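 Compounds incubated 1 h at room temperature with 5 nM kinase, Kinase Tracer 178 (20 nM for DDR1, 10 nM for DDR2) and 2 nM Eu-anti-GST antibody in pH 7.5 HEPES/MgCl2/EGTA/BRIJ35 buffer. TR-FRET 665/615 nm ratio read after 340 nm excitation; IC50 from 4-parameter fit, converted to Ki by Cheng-Prusoff.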

DDR2 = molecular target: T2, DDR2 (Homo sapiens, UniProt Q16832); experiment: DDR2 binding assay (LanthaScreen Europium Kinase Binding assay); set-up: purchased Life Technologies; details: binding assay, 5 nM DDR2, 10 nM Kinase Tracer 178; Ki from IC50 by Cheng-Prusoff; read-out: Ki DDR2
T2 sequence (Q16832 22-855): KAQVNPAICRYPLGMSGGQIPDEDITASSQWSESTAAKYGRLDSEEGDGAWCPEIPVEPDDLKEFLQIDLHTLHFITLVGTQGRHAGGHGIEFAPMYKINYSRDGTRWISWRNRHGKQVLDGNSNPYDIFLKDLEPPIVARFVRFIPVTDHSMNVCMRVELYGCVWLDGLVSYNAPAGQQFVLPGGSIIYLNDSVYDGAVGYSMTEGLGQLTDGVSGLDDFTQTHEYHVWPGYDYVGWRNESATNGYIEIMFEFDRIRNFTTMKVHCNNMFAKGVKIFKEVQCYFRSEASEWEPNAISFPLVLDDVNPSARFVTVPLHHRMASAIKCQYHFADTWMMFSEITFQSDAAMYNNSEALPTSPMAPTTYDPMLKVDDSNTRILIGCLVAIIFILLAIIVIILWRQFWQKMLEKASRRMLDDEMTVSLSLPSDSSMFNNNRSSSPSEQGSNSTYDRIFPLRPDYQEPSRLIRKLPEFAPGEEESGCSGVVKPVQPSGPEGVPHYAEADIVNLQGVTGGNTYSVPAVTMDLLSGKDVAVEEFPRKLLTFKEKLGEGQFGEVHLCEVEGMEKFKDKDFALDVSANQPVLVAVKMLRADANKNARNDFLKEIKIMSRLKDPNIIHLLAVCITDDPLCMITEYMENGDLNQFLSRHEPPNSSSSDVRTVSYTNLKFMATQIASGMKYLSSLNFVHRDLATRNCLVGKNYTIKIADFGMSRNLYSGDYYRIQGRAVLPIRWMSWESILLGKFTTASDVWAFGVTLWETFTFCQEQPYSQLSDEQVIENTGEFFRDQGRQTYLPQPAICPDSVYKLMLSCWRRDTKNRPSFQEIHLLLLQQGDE
Procedure, shortened: as §1

T1 sequence (Q08345 19-913): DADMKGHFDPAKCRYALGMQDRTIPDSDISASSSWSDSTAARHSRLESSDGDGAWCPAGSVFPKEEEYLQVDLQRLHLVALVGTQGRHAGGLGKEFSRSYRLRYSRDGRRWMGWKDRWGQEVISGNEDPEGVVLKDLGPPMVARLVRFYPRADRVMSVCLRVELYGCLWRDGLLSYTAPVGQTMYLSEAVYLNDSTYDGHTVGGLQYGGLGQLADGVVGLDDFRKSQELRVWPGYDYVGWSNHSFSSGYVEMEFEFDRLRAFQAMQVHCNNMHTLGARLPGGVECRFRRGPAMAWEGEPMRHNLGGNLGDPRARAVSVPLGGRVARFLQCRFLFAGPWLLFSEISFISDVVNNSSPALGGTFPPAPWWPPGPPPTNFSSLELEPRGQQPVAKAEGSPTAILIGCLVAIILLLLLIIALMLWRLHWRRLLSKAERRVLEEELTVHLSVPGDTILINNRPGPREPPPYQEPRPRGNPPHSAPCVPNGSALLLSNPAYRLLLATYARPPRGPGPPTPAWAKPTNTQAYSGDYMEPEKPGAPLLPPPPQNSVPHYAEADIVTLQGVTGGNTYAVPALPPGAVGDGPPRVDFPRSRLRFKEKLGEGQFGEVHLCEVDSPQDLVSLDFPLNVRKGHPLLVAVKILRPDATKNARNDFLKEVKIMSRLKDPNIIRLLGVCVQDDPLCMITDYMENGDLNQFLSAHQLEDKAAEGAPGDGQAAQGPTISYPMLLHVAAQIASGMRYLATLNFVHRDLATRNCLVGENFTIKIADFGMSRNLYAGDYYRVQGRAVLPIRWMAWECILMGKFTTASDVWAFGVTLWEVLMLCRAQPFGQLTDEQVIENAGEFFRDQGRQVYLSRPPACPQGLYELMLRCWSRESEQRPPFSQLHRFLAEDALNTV

| SMILES | IC50 (DDR1 [1]) [nM] | Ki (DDR1 [2]) [nM] | Ki (DDR2) [nM] |
| --- | --- | --- | --- |
| O=C(Nc1cccc(C(F)(F)F)c1)c1csc2c1CCN(C(=O)c1cnc3n1CCCC3)C2 [Example 95, 6-(5,6,7,8-tetrahydroimidazo[1,2-a]pyridine-3-carbonyl)-N-(3-(trifluoromethyl)phenyl)-4,5,6,7-tetrahydrothieno[2,3-c]pyridine-3-carboxamide] | < 25 | < 25 | < 25 |
| O=C(Nc1cccc(C(F)(F)F)c1)c1csc2c1CCN(C(=O)c1cnc3n1CCOC3)C2 [Example 96, 6-(5,6-dihydro-8H-imidazo[2,1-c][1,4]oxazine-3-carbonyl)-N-(3-(trifluoromethyl)phenyl)-4,5,6,7-tetrahydrothieno[2,3-c]pyridine-3-carboxamide] | < 25 | < 25 | < 25 |
| O=C(Nc1cc(F)cc(C(F)(F)F)c1)c1csc2c1CCN(C(=O)c1cnn3cccnc13)C2 [Example 97, N-(3-fluoro-5-(trifluoromethyl)phenyl)-6-(pyrazolo[1,5-a]pyrimidine-3-carbonyl)-4,5,6,7-tetrahydrothieno[2,3-c]pyridine-3-carboxamide] | < 25 | < 25 | < 25 |
| CC1c2scc(C(=O)Nc3cc(C(C)(C)C)nn3C)c2CCN1C(=O)c1cnc2ccccn12 (stereo not drawn) [Example 99, N-(3-(tert-butyl)-1-methyl-1H-pyrazol-5-yl)-6-(imidazo[1,2-a]pyridine-3-carbonyl)-7-methyl-4,5,6,7-tetrahydrothieno[2,3-c]pyridine-3-carboxamide] | 25 to 50 | < 25 | 50 to 80 |
| O=C(Nc1cncc(C(F)(F)F)c1)c1csc2c1CCN(C(=O)c1cnn3cccnc13)C2 [Example 109, 6-(pyrazolo[1,5-a]pyrimidine-3-carbonyl)-N-(5-(trifluoromethyl)pyridin-3-yl)-4,5,6,7-tetrahydrothieno[2,3-c]pyridine-3-carboxamide] | 25 to 50 | < 25 | < 25 |
| O=C(Nc1cncc(C(F)(F)F)c1)c1csc2c1CCN(C(=O)c1cnc3n1CCOC3)C2 [Example 110, 6-(5,6-dihydro-8H-imidazo[2,1-c][1,4]oxazine-3-carbonyl)-N-(5-(trifluoromethyl)pyridin-3-yl)-4,5,6,7-tetrahydrothieno[2,3-c]pyridine-3-carboxamide] | 25 to 50 | < 25 | < 25 |
| O=C(Nc1cncc(C(F)(F)F)c1)c1csc2c1CCN(C(=O)c1cnc3n1CCCC3)C2 [Example 111, 6-(5,6,7,8-tetrahydroimidazo[1,2-a]pyridine-3-carbonyl)-N-(5-(trifluoromethyl)pyridin-3-yl)-4,5,6,7-tetrahydrothieno[2,3-c]pyridine-3-carboxamide] | 50 to 80 | < 25 | < 25 |
| CC(C)(C)c1cc(NC(=O)c2csc3c2CCN(C(=O)c2cnc4n2CCOC4)C3)on1 [Example 112, N-(3-(tert-butyl)isoxazol-5-yl)-6-(5,6-dihydro-8H-imidazo[2,1-c][1,4]oxazine-3-carbonyl)-4,5,6,7-tetrahydrothieno[2,3-c]pyridine-3-carboxamide] | 25 to 50 | < 25 | < 25 |
| CC(C)(C)c1cc(NC(=O)c2csc3c2CCN(C(=O)c2cnn4ccncc24)C3)on1 [Example 113, N-(3-(tert-butyl)isoxazol-5-yl)-6-(pyrazolo[1,5-a]pyrazine-3-carbonyl)-4,5,6,7-tetrahydrothieno[2,3-c]pyridine-3-carboxamide] | 25 to 50 | < 25 | < 25 |
| Cn1nc(C2(C(F)(F)F)CC2)cc1NC(=O)c1csc2c1CCN(C(=O)c1cnc3ccccn13)C2 [Example 114, 6-(imidazo[1,2-a]pyridine-3-carbonyl)-N-(1-methyl-3-(1-(trifluoromethyl)cyclopropyl)-1H-pyrazol-5-yl)-4,5,6,7-tetrahydrothieno[2,3-c]pyridine-3-carboxamide] | 50 to 80 | < 25 | < 25 |

Continued, values first:

| IC50 (DDR1 [1]) [nM] | Ki (DDR1 [2]) [nM] | Ki (DDR2) [nM] | SMILES |
| --- | --- | --- | --- |
| 50 to 80 | < 25 | < 25 | CC(F)(F)c1cncc(NC(=O)c2csc3c2CCN(C(=O)c2cnc4ccccn24)C3)c1 [Example 115, N-(5-(1,1-difluoroethyl)pyridin-3-yl)-6-(imidazo[1,2-a]pyridine-3-carbonyl)-4,5,6,7-tetrahydrothieno[2,3-c]pyridine-3-carboxamide] |
| 25 to 50 | < 25 | < 25 | Cn1nc(NC(=O)c2csc3c2CCN(C(=O)c2cnn4ccncc24)C3)cc1C(C)(C)C [Example 116, N-(5-(tert-butyl)-1-methyl-1H-pyrazol-3-yl)-6-(pyrazolo[1,5-a]pyrazine-3-carbonyl)-4,5,6,7-tetrahydrothieno[2,3-c]pyridine-3-carboxamide] |
| < 25 | < 25 | < 25 | CC(C)(C)c1cncc(NC(=O)c2csc3c2CCN(C(=O)c2cnc4ccccn24)C3)c1 [Example 117, N-(5-(tert-butyl)pyridin-3-yl)-6-(imidazo[1,2-a]pyridine-3-carbonyl)-4,5,6,7-tetrahydrothieno[2,3-c]pyridine-3-carboxamide] |
| 25 to 50 | < 25 | < 25 | O=C(Nc1cncc(OC(F)F)c1)c1csc2c1CCN(C(=O)c1cnc3ccccn13)C2 [Example 118, N-(5-(difluoromethoxy)pyridin-3-yl)-6-(imidazo[1,2-a]pyridine-3-carbonyl)-4,5,6,7-tetrahydrothieno[2,3-c]pyridine-3-carboxamide] |
| 25 to 50 | < 25 | < 25 | CCC(C)(C)c1cc(NC(=O)c2csc3c2CCN(C(=O)c2cnc4ccccn24)C3)on1 [Example 119, 6-(imidazo[1,2-a]pyridine-3-carbonyl)-N-(3-(tert-pentyl)isoxazol-5-yl)-4,5,6,7-tetrahydrothieno[2,3-c]pyridine-3-carboxamide] |
| 50 to 80 | < 25 | < 25 | O=C(Nc1cncc(C(F)(F)F)c1)c1csc2c1CCN(C(=O)c1cnc3n1CCCN3)C2 [Example 120, 6-(5,6,7,8-tetrahydroimidazo[1,2-a]pyrimidine-3-carbonyl)-N-(5-(trifluoromethyl)pyridin-3-yl)-4,5,6,7-tetrahydrothieno[2,3-c]pyridine-3-carboxamide] |
| 50 to 80 | < 25 | < 25 | COc1ncc(NC(=O)c2csc3c2CCN(C(=O)c2cnn4ccncc24)C3)cc1C(F)(F)F [Example 121, N-(6-methoxy-5-(trifluoromethyl)pyridin-3-yl)-6-(pyrazolo[1,5-a]pyrazine-3-carbonyl)-4,5,6,7-tetrahydrothieno[2,3-c]pyridine-3-carboxamide] |
| 50 to 80 | < 25 | < 25 | CC(F)(F)c1cncc(NC(=O)c2csc3c2CCN(C(=O)c2cnn4ccncc24)C3)c1 [Example 122, N-(5-(1,1-difluoroethyl)pyridin-3-yl)-6-(pyrazolo[1,5-a]pyrazine-3-carbonyl)-4,5,6,7-tetrahydrothieno[2,3-c]pyridine-3-carboxamide] |
| 50 to 80 | < 25 | < 25 | CC(C)(C)c1cncc(NC(=O)c2csc3c2CCN(C(=O)c2cnn4ccncc24)C3)c1 [Example 123, N-(5-(tert-butyl)pyridin-3-yl)-6-(pyrazolo[1,5-a]pyrazine-3-carbonyl)-4,5,6,7-tetrahydrothieno[2,3-c]pyridine-3-carboxamide] |
